Measured values published in PMC11288027, “Exploring novel microbial metabolites and drugs for inhibiting Clostridioides difficile” (mSphere, 2024).
In brackets after ≈: the same amount, converted by molar mass. Several values for one entry are separate records, joined by “and”; a condition that tells them apart may be missing. Identical values can stand only once. Counter-ions that a name gives are not always drawn. Like-named read-outs stand apart in the source and are kept apart here. Blank lines part the entries; values can stand above or below the compound they belong to.

Legend:
[1] = tested on: C. difficile clinical isolates; assay: MIC against a panel of 20 C. difficile clinical isolates (broth microdilution); type: cell-based, Clostridioides difficile; settings: Clostridioides difficile; for MIC50: concentration that inhibited 50% of the 20 C. difficile clinical isolates
B. fragilis = assay: MIC against human gut microbiota; type: cell-based, Bacteroides fragilis; settings: for MIC: Bacteroides fragilis, read-out: minimum inhibitory concentration (MIC)
B. dorei = assay: MIC against human gut microbiota; type: cell-based, Bacteroides dorei; settings: Phocaeicola dorei, read-out: minimum inhibitory concentration (MIC)
Bif. breve = assay: MIC against human gut microbiota; type: cell-based, Bifidobacterium breve; settings: Bifidobacterium breve
Bif. angulatum = assay: MIC against human gut microbiota; type: cell-based, Bifidobacterium angulatum; settings: Bifidobacterium angulatum, read-out: minimum inhibitory concentration (MIC)
Bif. adolescentis = assay: MIC against human gut microbiota; type: cell-based, Bifidobacterium adolescentis; settings: Bifidobacterium adolescentis, read-out: minimum inhibitory concentration (MIC)
Bif. longum = assay: MIC against human gut microbiota; type: cell-based, Bifidobacterium longum; settings: Bifidobacterium longum, read-out: minimum inhibitory concentration (MIC)
E. faecium = assay: MIC against human gut microbiota; type: cell-based, Enterococcus faecium; settings: Enterococcus faecium, read-out: minimum inhibitory concentration (MIC)
E. fecalis = assay: MIC against human gut microbiota; type: cell-based, Enterococcus faecalis; settings: Enterococcus faecalis, read-out: minimum inhibitory concentration (MIC)
L. casei = assay: MIC against human gut microbiota; type: cell-based; settings: Lacticaseibacillus casei
L. brevis = assay: MIC against human gut microbiota; type: cell-based, Lactobacillus brevis; settings: Levilactobacillus brevis
L. rhamanosus = assay: MIC against human gut microbiota; type: cell-based, Lactobacillus rhamnoosus; settings: Lactobacillus
[2] = tested on: C. difficile ATCC BAA-1870; assay: MIC of active hits by broth microdilution; settings: for MIC: Clostridioides difficile, ATCCBAA1870, 48 h
[3] = tested on: C. difficile ATCC BAA-1870; assay: Time-kill assay at 5 × MIC; settings: C. difficile ATCC BAA-1870, ~10^6 CFU/mL, up to 24 h
[4] = C. difficile ATCC BAA-1870, 48 h anaerobic

MIC50 ([1]; 48 h, read-out: MIC50): 0.125 µg/mL (≈ 0.548 µM)
MIC ([1]; ATCC630, C. difficile ATCC 630, read-out: minimum inhibitory concentration (MIC)): 0.25 µg/mL (≈ 1.1 µM)
MIC ([1]; ATCC43255, C. difficile ATCC 43255, read-out: minimum inhibitory concentration (MIC)): 0.06 µg/mL (≈ 0.263 µM)
MIC ([1]; ATCCBAA1870, C. difficile ATCC BAA-1870 (Ribotype-027), purchased compounds, panel test, read-out: minimum inhibitory concentration (MIC)): 0.125 µg/mL (≈ 0.548 µM)
MIC ([1]; C. difficile CD-1 (Ribotype-027), read-out: minimum inhibitory concentration (MIC)): 0.125 µg/mL (≈ 0.548 µM)
MIC ([1]; C. difficile CD-6 (Ribotype-027), read-out: minimum inhibitory concentration (MIC)): 0.125 µg/mL (≈ 0.548 µM)
MIC ([1]; C. difficile CD-10(Ribotype-027), read-out: minimum inhibitory concentration (MIC)): 0.125 µg/mL (≈ 0.548 µM)
MIC ([1]; C. difficile CD-12, read-out: minimum inhibitory concentration (MIC)): 0.25 µg/mL (≈ 1.1 µM)
MIC ([1]; C. difficile CD-13, read-out: minimum inhibitory concentration (MIC)): 0.25 µg/mL (≈ 1.1 µM)
MIC ([1]; C. difficile CD-15, read-out: minimum inhibitory concentration (MIC)): 0.125 µg/mL (≈ 0.548 µM)
MIC ([1]; C. difficile CD-22, read-out: minimum inhibitory concentration (MIC)): 0.125 µg/mL (≈ 0.548 µM)
MIC ([1]; C. difficile CD-23, read-out: minimum inhibitory concentration (MIC)): 0.125 µg/mL (≈ 0.548 µM)
MIC ([1]; C. difficile CD-24, read-out: minimum inhibitory concentration (MIC)): 0.06 µg/mL (≈ 0.263 µM)
MIC ([1]; C. difficile CD-26 (Ribotype-027), read-out: minimum inhibitory concentration (MIC)): 0.125 µg/mL (≈ 0.548 µM)
MIC ([1]; C. difficile CD-28, read-out: minimum inhibitory concentration (MIC)): 0.125 µg/mL (≈ 0.548 µM)
MIC ([1]; C. difficile CD-29 (Ribotype-027), read-out: minimum inhibitory concentration (MIC)): 0.06 µg/mL (≈ 0.263 µM)
MIC ([1]; C. difficile CD-30, read-out: minimum inhibitory concentration (MIC)): 0.5 µg/mL (≈ 2.19 µM)
MIC ([1]; C. difficile NR-49302, read-out: minimum inhibitory concentration (MIC)): 0.125 µg/mL (≈ 0.548 µM)
MIC ([1]; C. difficile NR-49304, read-out: minimum inhibitory concentration (MIC)): 0.06 µg/mL (≈ 0.263 µM)
MIC ([1]; C. difficile NR-49308, read-out: minimum inhibitory concentration (MIC)): 0.06 µg/mL (≈ 0.263 µM)
MIC ([1]; C. difficile NR-49319, read-out: minimum inhibitory concentration (MIC)): 0.06 µg/mL (≈ 0.263 µM)
MIC50 ([1]; read-out: MIC50): 0.125 µg/mL (≈ 0.548 µM)
MIC90 ([1]; concentration that inhibited 90% of the 20 C. difficile clinical isolates, read-out: MIC90): 0.25 µg/mL (≈ 1.1 µM)
MIC (B. fragilis; B. fragilis HM- 709, BHIS broth, anaerobic): ≤ 2 µg/mL
MIC (B. fragilis; B. fragilis HM- 718, BHIS broth, anaerobic): ≤ 2 µg/mL
MIC (B. dorei; B. dorei HM- 719, BHIS broth, anaerobic): ≤ 2 µg/mL
MIC (Bif. breve; ATCC15700, Bif. breve ATCC 15700, BHIS broth, anaerobic, read-out: minimum inhibitory concentration (MIC)): > 256 µg/mL
MIC (Bif. angulatum; Bif. angulatum HM- 1189, BHIS broth, anaerobic): 32 µg/mL (≈ 140 µM)
MIC (Bif. adolescentis; Bif. adolescentis HM- 633, BHIS broth, anaerobic): 32 µg/mL (≈ 140 µM)
MIC (Bif. longum; Bif. longum HM- 845, BHIS broth, anaerobic): 128 µg/mL (≈ 561 µM)
MIC (Bif. longum; Bif. longum HM- 846, BHIS broth, anaerobic): 32 µg/mL (≈ 140 µM)
MIC (Bif. longum; Bif. longum HM- 847, BHIS broth, anaerobic): 64 µg/mL (≈ 281 µM)
MIC (Bif. longum; Bif. longum HM- 848, BHIS broth, anaerobic): 64 µg/mL (≈ 281 µM)
MIC (E. faecium; E. faecium HM-202, TSB, aerobic): > 256 µg/mL
MIC (E. fecalis; E. fecalis HM-970, TSB, aerobic): 128 µg/mL (≈ 561 µM)
MIC (L. casei; ATCC334, L. casei ATCC 334, MRS broth, 5% CO2, read-out: minimum inhibitory concentration (MIC)): > 256 µg/mL
MIC (L. brevis; ATCC14864, L. brevis ATCC-14864, MRS broth, 5% CO2, read-out: minimum inhibitory concentration (MIC)): > 256 µg/mL
MIC (L. rhamanosus; ATCC53103, L. rhamanosus ATCC-53103, MRS broth, 5% CO2, read-out: minimum inhibitory concentration (MIC)): > 256 µg/mL
MIC (μM) [2, 4]: 2 µM
MIC [2, 4]: 0.91 µg/mL
SMILES: Cc1ccc2c(Cl)cc(Cl)c(O)c2n1 [Chlorquinaldol]

SMILES: CC(C)=CCC[C@](C)(O[C@@H]1O[C@H](CO)[C@@H](O)[C@H](O)[C@H]1O)[C@H]1CC[C@]2(C)[C@@H]1[C@H](O)C[C@@H]1[C@@]3(C)CC[C@H](O)C(C)(C)[C@@H]3CC[C@]12C [Ginsenoside C-K]
MIC [2, 4]: 16 µM and 9.97 µg/mL

SMILES: CN[C@H](CC(C)C)C(=O)N[C@H]1C(=O)N[C@@H](CC(N)=O)C(=O)N[C@H]2C(=O)N[C@H]3C(=O)N[C@H](C(=O)N[C@H](C(=O)O)c4cc(O)cc(O)c4-c4cc3ccc4O)[C@H](O)c3ccc(c(Cl)c3)Oc3cc2cc(c3O[C@@H]2O[C@H](CO)[C@@H](O)[C@H](O)[C@H]2O[C@H]2C[C@](C)(N)[C@H](O)[C@H](C)O2)Oc2ccc(cc2Cl)[C@H]1O [Vancomycin, vancomycin hydrochloride]
MIC90 [1]: 2 µg/mL
MIC50 ([1]; 48 h): 0.5 µg/mL
MIC ([1]; ATCC630, read-out: minimum inhibitory concentration (MIC), C. difficile ATCC 630): 0.25 µg/mL
MIC ([1]; ATCC43255, read-out: minimum inhibitory concentration (MIC), C. difficile ATCC 43255): 0.25 µg/mL
MIC ([1]; ATCCBAA1870, read-out: minimum inhibitory concentration (MIC), C. difficile ATCC BAA-1870 (Ribotype-027), purchased compounds, panel test): 1 µg/mL
MIC ([1]; read-out: minimum inhibitory concentration (MIC), C. difficile CD-1 (Ribotype-027)): 2 µg/mL
MIC ([1]; read-out: minimum inhibitory concentration (MIC), C. difficile CD-6 (Ribotype-027)): 2 µg/mL
MIC ([1]; read-out: minimum inhibitory concentration (MIC), C. difficile CD-10(Ribotype-027)): 2 µg/mL
MIC ([1]; read-out: minimum inhibitory concentration (MIC), C. difficile CD-12): 1 µg/mL
MIC ([1]; read-out: minimum inhibitory concentration (MIC), C. difficile CD-13): 0.5 µg/mL
MIC ([1]; read-out: minimum inhibitory concentration (MIC), C. difficile CD-15): 0.5 µg/mL
MIC ([1]; read-out: minimum inhibitory concentration (MIC), C. difficile CD-22): 0.5 µg/mL
MIC ([1]; read-out: minimum inhibitory concentration (MIC), C. difficile CD-23): 0.25 µg/mL
MIC ([1]; read-out: minimum inhibitory concentration (MIC), C. difficile CD-24): 0.25 µg/mL
MIC ([1]; read-out: minimum inhibitory concentration (MIC), C. difficile CD-26 (Ribotype-027)): 1 µg/mL
MIC ([1]; read-out: minimum inhibitory concentration (MIC), C. difficile CD-28): 0.5 µg/mL
MIC ([1]; read-out: minimum inhibitory concentration (MIC), C. difficile CD-29 (Ribotype-027)): 1 µg/mL
MIC ([1]; read-out: minimum inhibitory concentration (MIC), C. difficile CD-30): 0.5 µg/mL
MIC ([1]; read-out: minimum inhibitory concentration (MIC), C. difficile NR-49302): 0.5 µg/mL
MIC ([1]; read-out: minimum inhibitory concentration (MIC), C. difficile NR-49304): 0.5 µg/mL
MIC ([1]; read-out: minimum inhibitory concentration (MIC), C. difficile NR-49308): 0.5 µg/mL
MIC ([1]; read-out: minimum inhibitory concentration (MIC), C. difficile NR-49319): 0.5 µg/mL
MIC50 [1]: 0.5 µg/mL
minimum inhibitory concentration (MIC) (B. fragilis): 32 µg/mL
MIC (B. fragilis): 16 µg/mL
MIC (B. dorei): 16 µg/mL
MIC (Bif. breve; ATCC15700, read-out: minimum inhibitory concentration (MIC)): ≤ 2 µg/mL
MIC (Bif. angulatum): ≤ 2 µg/mL
MIC (Bif. adolescentis): ≤ 2 µg/mL
MIC (Bif. longum): ≤ 2 µg/mL
MIC (E. faecium): ≤ 2 µg/mL
MIC (E. fecalis): > 256 µg/mL
MIC (L. casei; ATCC334, read-out: minimum inhibitory concentration (MIC)): > 256 µg/mL
MIC (L. brevis; ATCC14864, read-out: minimum inhibitory concentration (MIC)): > 256 µg/mL
MIC (L. rhamanosus; ATCC53103, read-out: minimum inhibitory concentration (MIC)): > 256 µg/mL
time to eliminate / clear C. difficile [3]: ≤ 24 h
MIC [2]: 1 µg/mL
